The source of these data is patent US10933056B2, “3-(1H-pyrazol-4-yl)pyridine allosteric modulators of the M4 muscarinic acetylcholine receptor” (Merck Sharp & Dohme Corp., priority 2015, dated 2021).

This assay has as its target T1, human M4 muscarinic acetylcholine receptor (Homo sapiens, UniProt P08173).
T1 construct: expressed in transfected cells; host or cells: CHO-K1
T1 sequence (P08173 1-479): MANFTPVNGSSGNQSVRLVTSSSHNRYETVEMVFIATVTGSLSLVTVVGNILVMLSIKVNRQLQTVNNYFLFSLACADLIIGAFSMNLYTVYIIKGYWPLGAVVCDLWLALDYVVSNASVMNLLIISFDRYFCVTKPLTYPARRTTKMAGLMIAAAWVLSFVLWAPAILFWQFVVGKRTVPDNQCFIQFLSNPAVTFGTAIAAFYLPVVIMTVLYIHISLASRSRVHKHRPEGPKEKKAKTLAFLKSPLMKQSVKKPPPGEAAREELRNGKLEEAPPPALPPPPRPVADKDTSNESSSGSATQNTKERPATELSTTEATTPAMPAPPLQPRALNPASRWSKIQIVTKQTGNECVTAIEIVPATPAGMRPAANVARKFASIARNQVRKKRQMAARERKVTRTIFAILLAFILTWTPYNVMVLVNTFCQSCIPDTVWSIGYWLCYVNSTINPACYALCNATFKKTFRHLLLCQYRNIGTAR
Kind of assay: human FLIPR-based M4 PAM assay (calcium mobilization in CHO-K1 cells with human M4 receptor and Gαqi5). The note with it: inflection point of dose response curve, acetylcholine at 20% of maximum response, FLIPR Tetra, read-out: M4 PAM IP. Type of assay: cell-based. In a few lines: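 CHO-K1 cells stably expressing human M4 and chimeric Gαqi5 were dye-loaded ~1 h at 37° C. Test compound was added with fluorescence recorded 4 min, then acetylcholine at EC20 (sometimes a further EC70 addition) with reading 3.5 min. Value is the inflection point of a 4-parameter logistic fit.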

In the case of `Cc1cc(-c2cnn(CC3(C)CCCC3)c2)c(-c2cnc3c(c2)C(=O)N(C)C3)nc1Cl` [Example 100, 3-(6-chloro-5-methyl-3-(1-((1-methylcyclopentyl)methyl)-1H-pyrazol-4-yl)pyridin-2-yl)-6-methyl-6,7-dihydro-5H-pyrrolo[3,4-b]pyridin-5-one], the EC50 stood at 26 nM.

Consider `CC1(Cn2cc(-c3ccc(C#N)nc3-c3cnc4c(c3)C(=O)NC4)cn2)CCCC1` [Example 101, 5-(1-((1-methylcyclopentyl)methyl)-1H-pyrazol-4-yl)-6-(5-oxo-6,7-dihydro-5H-pyrrolo[3,4-b]pyridin-3-yl)picolinonitrile], for which the EC50 was determined as 18 nM.

Turning to `CC1(Cn2cc(-c3ccc(C#N)nc3-c3cnc4c(c3)C(=O)N(CC3CC3)C4)cn2)CCCC1` [Example 102, 6-(6-(cyclopropylmethyl)-5-oxo-6,7-dihydro-5H-pyrrolo[3,4-b]pyridin-3-yl)-5-(1-((1-methylcyclopentyl)methyl)-1H-pyrazol-4-yl)picolinonitrile], the EC50 was 35 nM.

As to `CC1(Cn2cc(-c3ccc(C#N)nc3-c3cnc4c(c3)C(=O)N(CCF)C4)cn2)CCCC1` [Example 103, 6-(6-(2-fluoroethyl)-5-oxo-6,7-dihydro-5H-pyrrolo[3,4-b]pyridin-3-yl)-5-(1-((1-methylcyclopentyl)methyl)-1H-pyrazol-4-yl)picolinonitrile], the EC50 amounted to 33 nM.

As for `Cc1ccc(-c2cnn(CC3(C)CCCC3)c2)c(-c2ccc3c(c2)C(=O)NC3)n1` [Example 104, 6-(6-methyl-3-(1-((1-methylcyclopentyl)methyl)-1H-pyrazol-4-yl)pyridin-2-yl)isoindolin-1-one], the EC50 was determined as 14 nM.

In the case of `CC1(Cn2cc(-c3ccc(C#N)nc3-c3cnc4c(c3)C(=O)N(C3CC3)C4)cn2)CCCC1` [Example 105, 6-(6-cyclopropyl-5-oxo-6,7-dihydro-5H-pyrrolo[3,4-b]pyridin-3-yl)-5-(1-((1-methylcyclopentyl)methyl)-1H-pyrazol-4-yl)picolinonitrile], the EC50 was determined as 36 nM.

As for `CC1(Cn2cc(-c3ccc(Cl)nc3-c3cnc4c(c3)C(=O)N(CC3CC3)C4)cn2)CCCC1` [Example 106, 3-(6-chloro-3-(1-((1-methylcyclopentyl)methyl)-1H-pyrazol-4-yl)pyridin-2-yl)-6-(cyclopropylmethyl)-6,7-dihydro-5H-pyrrolo[3,4-b]pyridin-5-one], the EC50 turned out to be 43 nM.

As for `CN1Cc2ccc(-c3nc(Cl)ccc3-c3cnn(CC4CCCC4)c3)cc2C1=O` [Example 107, 6-(6-Chloro-3-(1-(cyclopentylmethyl)-1H-pyrazol-4-yl)pyridin-2-yl)-2-methylisoindolin-1-one], the EC50 amounted to 15 nM.

With `O=C1c2cc(-c3nc(Cl)ccc3-c3cnn(CC4CCCC4)c3)ccc2CN1C1CC1` [Example 108, 6-(6-chloro-3-(1-(cyclopentylmethyl)-1H-pyrazol-4-yl)pyridin-2-yl)-2-cyclopropylisoindolin-1-one], the EC50 worked out at 17 nM.

Turning to `Cc1cc(-c2cnn(CC3(C)CCCC3)c2)c(-c2ccc3c(c2)C(=O)N(C)C3)nc1C` [Example 109, 6-(5,6-Dimethyl-3-(1-((1-methylcyclopentyl)methyl)-1H-pyrazol-4-yl)pyridin-2-yl)-2-methylisoindolin-1-one], the EC50 was 48 nM.

`CN1Cc2ccc(-c3nc(C#N)ccc3-c3cn(CC4(C)CCCC4)nc3C#N)cc2C1=O` [Example 110, 5-(3-Cyano-1-((1-methylcyclopentyl)methyl)-1H-pyrazol-4-yl)-6-(2-methyl-3-oxoisoindolin-5-yl)picolinonitrile]: the EC50 turned out to be 86 nM.

On to `Cc1cc(-c2cnn(CC3(C)CCCC3)c2)c(-c2ccc3c(c2)C(=O)N(C)C3)nc1C#N` [Example 111, 3-Methyl-6-(2-methyl-3-oxoisoindolin-5-yl)-5-(1-((1-methylcyclopentyl)methyl)-1H-pyrazol-4-yl)picolinonitrile], for which the EC50 turned out to be 35 nM.

As to `Cc1cc(-c2cnn(CC3(C)CCCC3)c2)c(-c2cnc3c(c2)C(=O)N(C)C3)nc1C#N` [Example 112, 3-methyl-6-(6-methyl-5-oxo-6,7-dihydro-5H-pyrrolo[3,4-b]pyridin-3-yl)-5-(1-((1-methylcyclopentyl)-methyl)-1H-pyrazol-4-yl)picolinonitrile], the EC50 was 27 nM.

In the case of `Cc1cc(-c2cnn(CC3(C)CCCC3)c2)c(-c2ccc3c(c2)C(=O)NC3)nc1C#N` [Example 112A, 3-methyl-5-(1-((1-methylcyclopentyl)methyl)-1H-pyrazol-4-yl)-6-(3-oxoisoindolin-5-yl)picolinonitrile], the EC50 turned out to be 36 nM.

For `Cc1cc(-c2cnn(CC3(C)CCCC3)c2)c(-c2ccc3c(c2)C(=O)N(C)C3)nc1C(N)=O` [Example 113, 3-Methyl-6-(2-methyl-3-oxoisoindolin-5-yl)-5-(1-((1-methylcyclopentyl)methyl)-1H-pyrazol-4-yl)picolinamide], the EC50 was 69 nM.

Regarding `CC1(Cn2cc(-c3ccc(C(N)=O)nc3-c3ccc4c(c3)C(=O)NC4)cn2)CCCC1` [Example 113A, 5-(1-((1-methylcyclopentyl)methyl)-1H-pyrazol-4-yl)-6-(3-oxoisoindolin-5-yl)picolinamide], the EC50 worked out at 205 nM.

For the molecule `Cc1cc(-c2cnn(CC3(C)CCCC3)c2)c(-c2ccc3c(c2)C(=O)N(C)C3)nc1CF` [Example 114, 6-(6-(Fluoromethyl)-5-methyl-3-(1-((1-methylcyclopentyl)methyl)-1H-pyrazol-4-yl)pyridin-2-yl)-2-methylisoindolin-1-one], the EC50 worked out at 57 nM.

With `CN1Cc2ccc(-c3nc(CF)c(F)cc3-c3cnn(CC4(C)CCCC4)c3)cc2C1=O` [Example 115, 6-(5-fluoro-6-(fluoromethyl)-3-(1-((1-methylcyclo-pentyl)-methyl)-1H-pyrazol-4-yl)pyridin-2-yl)-2-methylisoindolin-1-one], the EC50 is 47 nM.

With `COCc1nc(-c2ccc3c(c2)C(=O)N(C)C3)c(-c2cnn(CC3(C)CCCC3)c2)cc1C` [Example 116, 6-(6-(Methoxymethyl)-5-methyl-3-(1-((1-methylcyclopentyl)methyl)-1H-pyrazol-4-yl)pyridin-2-yl)-2-methylisoindolin-1-one], the EC50 worked out at 326 nM.

In the case of `C#CCN1Cc2ncc(-c3nc(CF)ccc3-c3cnn(CC4(C)CCCC4)c3)cc2C1=O` [Example 117, 3-(6-(Fluoromethyl)-3-(1-((1-methylcyclopentyl)methyl)-1H-pyrazol-4-yl)pyridin-2-yl)-6-(prop-2-yn-1-yl)-6,7-dihydro-5H-pyrrolo[3,4-b]pyridin-5-one], the EC50 turned out to be 32 nM.

Turning to `C#CCN1Cc2ncc(-c3nc4c(cc3-c3cnn(CC5(C)CCCC5)c3)CCC4)cc2C1=O` [Example 118, 3-(3-(1-((1-methylcyclopentyl)methyl)-1H-pyrazol-4-yl)-6,7-dihydro-5H-cyclopenta[b]pyridin-2-yl)-6-(prop-2-yn-1-yl)-6,7-dihydro-5H-pyrrolo[3,4-b]pyridin-5-one], the EC50 was 79 nM.

For the molecule `CC1(Cn2cc(-c3cc4c(nc3-c3cnc5c(c3)C(=O)N(CCF)C5)CCC4)cn2)CCCC1` [Example 118A, 6-(2-fluoroethyl)-3-(3-(1-((1-methylcyclopentyl)methyl)-1H-pyrazol-4-yl)-6,7-dihydro-5H-cyclopenta[b]pyridin-2-yl)-6,7-dihydro-5H-pyrrolo[3,4-b]pyridin-5-one], the EC50 is 50 nM.
